Experimental data: PubChem BioAssay (NCI)
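Test compounds were applied to cells in 96-well plates for 48 hours at 5 doses. The concentration for full growth arrest is given as TGI.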

Tests used:
Assay in all cases: NCI anticancer screen, dose series, 48 h
MDA-MB-435 = tested on: MDA-MB-435
SF-268 CNS = tested on: SF-268 CNS
NCI-H460 lung = tested on: NCI-H460 lung
HCT-15 colon = tested on: HCT-15 colon
RPMI-8226 leukemia = tested on: RPMI-8226 leukemia
HCC-2998 colon = tested on: HCC-2998 colon
SF-539 CNS = tested on: SF-539 CNS
SK-MEL-2 melanoma = tested on: SK-MEL-2 melanoma
KM12 colon = tested on: KM12 colon
UO-31 renal = tested on: UO-31 renal
HOP-92 NSCLC = tested on: HOP-92 NSCLC
SNB-75 CNS = tested on: SNB-75 CNS
MOLT-4 leukemia = tested on: MOLT-4 leukemia
RXF 393 renal = tested on: RXF 393 renal
SN12C renal = tested on: SN12C renal
OVCAR-4 ovarian = tested on: OVCAR-4 ovarian
OVCAR-5 ovarian = tested on: OVCAR-5 ovarian
HCT-116 colon = tested on: HCT-116 colon
UACC-257 melanoma = tested on: UACC-257 melanoma
TK-10 renal = tested on: TK-10 renal
SW-620 colon = tested on: SW-620 colon
786-0 renal = tested on: 786-0 renal
NCI-H23 lung = tested on: NCI-H23 lung
PC-3 prostate = tested on: PC-3 prostate
NCI/ADR-RES ovarian = tested on: NCI/ADR-RES ovarian
K-562 leukemia = tested on: K-562 leukemia
SNB-19 CNS = tested on: SNB-19 CNS
BT-549 breast = tested on: BT-549 breast
NCI-H522 lung = tested on: NCI-H522 lung
A549 NSCLC = tested on: A549 NSCLC
MDA-MB-231 breast = tested on: MDA-MB-231 breast
OVCAR-3 ovarian = tested on: OVCAR-3 ovarian
UACC-62 melanoma = tested on: UACC-62 melanoma
HOP-62 NSCLC = tested on: HOP-62 NSCLC
LOX IMVI melanoma = tested on: LOX IMVI melanoma
SF-295 CNS = tested on: SF-295 CNS
A498 renal = tested on: A498 renal
CAKI-1 renal = tested on: CAKI-1 renal
DU-145 prostate = tested on: DU-145 prostate
HT29 colon = tested on: HT29 colon
MCF7 breast = tested on: MCF7 breast
M14 melanoma = tested on: M14 melanoma
IGROV1 ovarian = tested on: IGROV1 ovarian
SK-OV-3 ovarian = tested on: SK-OV-3 ovarian
SR leukemia = tested on: SR leukemia
OVCAR-8 ovarian = tested on: OVCAR-8 ovarian
NCI-H226 lung = tested on: NCI-H226 lung
MALME-3M melanoma = tested on: MALME-3M melanoma
HL-60(TB) leukemia = tested on: HL-60(TB) leukemia
CCRF-CEM leukemia = tested on: CCRF-CEM leukemia
COLO 205 colon = tested on: COLO 205 colon
EKVX NSCLC = tested on: EKVX NSCLC
HS 578T breast = tested on: HS 578T breast
T-47D breast = tested on: T-47D breast
MDA-N = tested on: MDA-N
SK-MEL-5 melanoma = tested on: SK-MEL-5 melanoma
ACHN renal = tested on: ACHN renal
SK-MEL-28 melanoma = tested on: SK-MEL-28 melanoma
U251 CNS = tested on: U251 CNS

Cc1ccc([N+](=O)[O-])cc1S(=O)(=O)Nc1ccc(C(=O)/C=C/c2cccs2)cc1
TGI (MDA-MB-435): 32.7 µM
TGI (SF-268 CNS): > 100 µM
TGI (NCI-H460 lung): > 100 µM
TGI (HCT-15 colon): 64.3 µM
TGI (RPMI-8226 leukemia): > 100 µM
TGI (HCC-2998 colon): 34.6 µM
TGI (SF-539 CNS): > 100 µM
TGI (SK-MEL-2 melanoma): 41.8 µM
TGI (KM12 colon): 32.5 µM
TGI (UO-31 renal): 40.4 µM
TGI (HOP-92 NSCLC): > 100 µM
TGI (SNB-75 CNS): 36.9 µM
TGI (MOLT-4 leukemia): 64.1 µM
TGI (RXF 393 renal): 32.9 µM
TGI (SN12C renal): 74.8 µM
TGI (OVCAR-4 ovarian): 54.3 µM
TGI (OVCAR-5 ovarian): > 100 µM
TGI (HCT-116 colon): 35.8 µM
TGI (UACC-257 melanoma): 46.6 µM
TGI (TK-10 renal): > 100 µM
TGI (SW-620 colon): 50.1 µM
TGI (786-0 renal): 37.4 µM
TGI (NCI-H23 lung): 46.1 µM
TGI (PC-3 prostate): 43.8 µM
TGI (NCI/ADR-RES ovarian): 59.3 µM
TGI (K-562 leukemia): > 100 µM
TGI (SNB-19 CNS): 55.9 µM
TGI (BT-549 breast): 40.1 µM
TGI (NCI-H522 lung): 50.8 µM
TGI (A549 NSCLC): > 100 µM
TGI (MDA-MB-231 breast): 31.1 µM
TGI (OVCAR-3 ovarian): 39.2 µM
TGI (UACC-62 melanoma): 32.1 µM
TGI (HOP-62 NSCLC): 48 µM
TGI (LOX IMVI melanoma): 45.2 µM
TGI (SF-295 CNS): > 100 µM
TGI (A498 renal): 45.1 µM
TGI (CAKI-1 renal): 38.8 µM
TGI (DU-145 prostate): 54.2 µM
TGI (HT29 colon): 41.6 µM
TGI (MCF7 breast): 39.2 µM
TGI (M14 melanoma): 45.3 µM
TGI (IGROV1 ovarian): > 100 µM
TGI (SK-OV-3 ovarian): > 100 µM
TGI (SR leukemia): 68.9 µM
TGI (OVCAR-8 ovarian): > 100 µM
TGI (NCI-H226 lung): 71.5 µM
TGI (MALME-3M melanoma): > 100 µM
TGI (HL-60(TB) leukemia): 62.9 µM
TGI (CCRF-CEM leukemia): > 100 µM
TGI (COLO 205 colon): 95.9 µM
TGI (EKVX NSCLC): 51.7 µM
TGI (HS 578T breast): > 100 µM
TGI (T-47D breast): 91.7 µM
TGI (MDA-N): 73 µM
TGI (SK-MEL-5 melanoma): 33.1 µM
TGI (ACHN renal): 87.6 µM
TGI (SK-MEL-28 melanoma): 58.7 µM

Cc1cc(O)c(C=O)c2c1C(=O)Oc1c(CO)c(O)c3c(c1O2)C(O)OC3=O (stereo unspecified)
TGI (MDA-MB-435): > 100 µM
TGI (SF-268 CNS): > 100 µM
TGI (HCT-15 colon): > 100 µM
TGI (U251 CNS): > 100 µM
TGI (RPMI-8226 leukemia): 54.5 µM
TGI (HCC-2998 colon): > 100 µM
TGI (SF-539 CNS): > 100 µM
TGI (SK-MEL-2 melanoma): > 100 µM
TGI (KM12 colon): > 100 µM
TGI (UO-31 renal): > 100 µM
TGI (HOP-92 NSCLC): > 100 µM
TGI (SNB-75 CNS): > 100 µM
TGI (MOLT-4 leukemia): 94.1 µM
TGI (RXF 393 renal): > 100 µM
TGI (SN12C renal): > 100 µM
TGI (OVCAR-4 ovarian): > 100 µM
TGI (OVCAR-5 ovarian): > 100 µM
TGI (HCT-116 colon): > 100 µM
TGI (UACC-257 melanoma): > 100 µM
TGI (TK-10 renal): > 100 µM
TGI (SW-620 colon): > 100 µM
TGI (786-0 renal): > 100 µM
TGI (NCI-H23 lung): > 100 µM
TGI (PC-3 prostate): > 100 µM
TGI (NCI/ADR-RES ovarian): > 100 µM
TGI (SNB-19 CNS): > 100 µM
TGI (BT-549 breast): > 100 µM
TGI (NCI-H522 lung): > 100 µM
TGI (A549 NSCLC): > 100 µM
TGI (MDA-MB-231 breast): > 100 µM
TGI (OVCAR-3 ovarian): > 100 µM
TGI (UACC-62 melanoma): > 100 µM
TGI (HOP-62 NSCLC): > 100 µM
TGI (LOX IMVI melanoma): > 100 µM
TGI (SF-295 CNS): > 100 µM
TGI (A498 renal): > 100 µM
TGI (CAKI-1 renal): > 100 µM
TGI (DU-145 prostate): > 100 µM
TGI (HT29 colon): > 100 µM
TGI (MCF7 breast): > 100 µM
TGI (M14 melanoma): > 100 µM
TGI (IGROV1 ovarian): > 100 µM
TGI (SK-OV-3 ovarian): > 100 µM
TGI (SR leukemia): 66.2 µM
TGI (OVCAR-8 ovarian): > 100 µM
TGI (NCI-H226 lung): > 100 µM
TGI (MALME-3M melanoma): > 100 µM
TGI (HL-60(TB) leukemia): 79.2 µM
TGI (CCRF-CEM leukemia): > 100 µM
TGI (COLO 205 colon): > 100 µM
TGI (EKVX NSCLC): > 100 µM
TGI (HS 578T breast): > 100 µM
TGI (T-47D breast): > 100 µM
TGI (MDA-N): > 100 µM
TGI (SK-MEL-5 melanoma): > 100 µM
TGI (ACHN renal): > 100 µM
TGI (SK-MEL-28 melanoma): > 100 µM

N#CC1CNC(N)NC1N (stereo unspecified)
TGI (MDA-MB-435): > 100 µM
TGI (SF-268 CNS): > 100 µM
TGI (NCI-H460 lung): > 100 µM
TGI (HCT-15 colon): > 100 µM
TGI (U251 CNS): > 100 µM
TGI (RPMI-8226 leukemia): > 100 µM
TGI (SF-539 CNS): > 100 µM
TGI (SK-MEL-2 melanoma): > 100 µM
TGI (KM12 colon): > 100 µM
TGI (HOP-92 NSCLC): > 100 µM
TGI (SNB-75 CNS): > 100 µM
TGI (RXF 393 renal): > 100 µM
TGI (SN12C renal): > 100 µM
TGI (OVCAR-4 ovarian): > 100 µM
TGI (OVCAR-5 ovarian): > 100 µM
TGI (HCT-116 colon): > 100 µM
TGI (UACC-257 melanoma): > 100 µM
TGI (TK-10 renal): > 100 µM
TGI (SW-620 colon): > 100 µM
TGI (786-0 renal): > 100 µM
TGI (NCI-H23 lung): > 100 µM
TGI (PC-3 prostate): > 100 µM
TGI (NCI/ADR-RES ovarian): > 100 µM
TGI (K-562 leukemia): > 100 µM
TGI (SNB-19 CNS): > 100 µM
TGI (BT-549 breast): > 100 µM
TGI (NCI-H522 lung): > 100 µM
TGI (A549 NSCLC): > 100 µM
TGI (MDA-MB-231 breast): > 100 µM
TGI (OVCAR-3 ovarian): > 100 µM
TGI (UACC-62 melanoma): > 100 µM
TGI (HOP-62 NSCLC): > 100 µM
TGI (LOX IMVI melanoma): > 100 µM
TGI (SF-295 CNS): > 100 µM
TGI (A498 renal): > 100 µM
TGI (CAKI-1 renal): > 100 µM
TGI (DU-145 prostate): > 100 µM
TGI (HT29 colon): > 100 µM
TGI (MCF7 breast): > 100 µM
TGI (M14 melanoma): > 100 µM
TGI (IGROV1 ovarian): > 100 µM
TGI (SK-OV-3 ovarian): > 100 µM
TGI (SR leukemia): > 100 µM
TGI (OVCAR-8 ovarian): > 100 µM
TGI (NCI-H226 lung): > 100 µM
TGI (MALME-3M melanoma): > 100 µM
TGI (HL-60(TB) leukemia): > 100 µM
TGI (CCRF-CEM leukemia): 34.6 µM
TGI (COLO 205 colon): > 100 µM
TGI (EKVX NSCLC): > 100 µM
TGI (HS 578T breast): > 100 µM
TGI (T-47D breast): > 100 µM
TGI (MDA-N): > 100 µM
TGI (SK-MEL-5 melanoma): > 100 µM
TGI (ACHN renal): > 100 µM
TGI (SK-MEL-28 melanoma): > 100 µM
